{"source": "patent US8951997B2", "about": "“Substituted isoquinoline derivative” (D. Western Therapeutics Institute, Inc., priority 2009, dated 2015)", "key": {"NG108-15 cells": {"test_system": "NG108-15 cells", "test": "Neurite outgrowth promoting effect", "type": "cell-based", "conditions": "NG108-15 cells, 10, 3, 1, or 0.3 μmol/L, 24 hours, compared with cells cultured in the absence of the compound", "description": "To examine the usefulness of the compound of the present invention as a therapeutic agent for neurodegenerative diseases, NG108-15 cells frequently used as a model of neurons were cultured in the presence of the compound of the present invention, which was then evaluated for its neurite outgrowth promoting effect. Examples 15 and 49 were used as test compounds.\nEach test compound was dissolved in dimethyl sulfoxide and diluted to prepare a test compound solution with a predetermined concentration.\nThe NG108-15 cells (obtained from ATCC) were cultured in a Dulbecco's modified eagle's medium containing 5% fetal bovine serum and 1×HAT (hypoxanthine, aminopterin, and thymidine). The cells were inoculated at 12,000 cells/well to a 24-well plate and statically cultured at 37° C. for 12 hours in an environment of 5% CO2 and 95% air. Then, each test compound was added at a final concentration of 10, 3, 1, or 0.3 μmol/L. 24 hours later, the degree of neurite outgrowth was observed under an inverted microscope."}, "[1]": {"test_system": "rabbits (New Zealand White)", "test": "Ocular hypotensive effect in rabbits", "type": "in vivo, rabbit", "conditions": "Oryctolagus cuniculus, topical, 0.04 mL dropped to one eye, vehicle to contralateral eye, test compound solution concentration 10 (W/V), read-out: Maximum ocular hypotensive rate", "description": "The compound of the present invention was administered to rabbits (New Zealand White, sex: male, 3 to 7 per group) and evaluated for its ocular hypotensive effect.\nEach test compound was dissolved in a vehicle (1.04 g of sodium dihydrogen phosphate dihydrate and 0.5 g of sodium chloride dissolved in purified water and then adjusted to pH 7.0 with sodium hydroxide to make the total amount to 100 mL) to prepare a test compound solution with a concentration of 10 (W/V).\nThe intraocular pressures of the rabbits were measured using Tiolat TonoVet handheld tonometer immediately before administration of test compound. The test compound solution and the vehicle were dropped at a volume of 0.04 mL to one eye and the contralateral eye, respectively, and the intraocular pressures were measured over time in the same way as above. The rate of the intraocular pressure of the eye receiving the test compound solution to that of the eye receiving the vehicle was calculated as an ocular hypotensive rate."}, "rats (SD)": {"test_system": "rats (SD)", "test": "Blood pressure lowering effect in rats", "type": "in vivo, rat", "conditions": "male, intraperitoneal, 10 mg/kg", "description": "The compound of the present invention was intraperitoneally administered to rats (SD, sex: male, 6 rats per group) and evaluated for its blood pressure lowering effect. Example 18 was used as a test compound.\nThe test compound was dissolved in saline and diluted to prepare a test compound solution with a predetermined concentration.\nThe test drug was intraperitoneally administered at a dose of 10 mg/kg to the rats (6 rats per group), and their blood pressures and pulse rates were measured over time using Softron Indirect Blood Pressure Meter BP-98A."}, "[2]": {"test_system": "spontaneously hypertensive rats (SHR/Izm)", "test": "Blood pressure lowering effect in spontaneously hypertensive rats", "type": "in vivo, rat", "conditions": "male, intraperitoneal", "description": "The compound of the present invention was intraperitoneally administered to spontaneously hypertensive rats (SHR/Izm, sex: male, 4 to 6 rats per group) and evaluated for its blood pressure lowering effect. Examples 32, 34, and 35 were used as test compounds.\nEach test compound was dissolved in saline and diluted to prepare a test compound solution with a predetermined concentration.\nThe test drug was intraperitoneally administered at a dose of 10 mg/kg (except for 30 mg/kg for Example 34) to the animals (4 to 6 rats per group), and their blood pressures and pulse rates were measured over time using Softron Indirect Blood Pressure Meter BP-98A."}, "[3]": {"test_system": "rabbits (New Zealand White)", "test": "Ocular hypotensive effect in rabbits", "type": "in vivo, rabbit", "conditions": "Oryctolagus cuniculus, topical, 0.04 mL dropped to one eye, vehicle to contralateral eye, test compound concentration of 2%, read-out: Maximum ocular hypotensive rate"}}, "note": "Structures can show the parent of a compound that is named as a salt.", "data": [{"smiles": "C[C@H]1CNCCCN1S(=O)(=O)c1ccc2cnccc2c1Br", "note": "[Example 15, (S)-5-bromo-6-(2-methyl-1,4-diazepan-1-ylsulfonyl)isoquinoline dihydrochloride]", "values": [{"measurement": "degree of neurite outgrowth", "setting": "NG108-15 cells", "value": "remarkable neurite outgrowth"}, {"measurement": "inhibition in vivo at 10 %", "setting": "[1]", "value": "≥ 15", "unit": "%"}]}, {"smiles": "C[C@@H]1CNCCCN1S(=O)(=O)c1ccc2cnccc2c1", "note": "[Example 18, (R)-6-(2-methyl-1,4-diazepan-1-ylsulfonyl)isoquinoline dihydrochloride]", "values": [{"measurement": "pulse rate", "setting": "rats (SD)", "value": "increased"}, {"measurement": "systolic blood pressure lowered compared with the value before administration", "setting": "rats (SD); maximum lowering", "value": "≥ 30", "unit": "%"}, {"measurement": "inhibition in vivo at 10 %", "setting": "[1]", "value": "≥ 15", "unit": "%"}]}, {"smiles": "C[C@@H]1CNCCCCN1S(=O)(=O)c1ccc2cnccc2c1Br", "note": "[Example 23, (R)-5-bromo-6-(2-methyl-1,4-diazocan-1-ylsulfonyl)isoquinoline dihydrochloride]", "values": [{"measurement": "inhibition in vivo at 10 %", "setting": "[1]", "value": "≥ 15", "unit": "%"}]}, {"smiles": "C[C@H]1CNCCCCN1S(=O)(=O)c1ccc2cnccc2c1", "note": "[Example 24, (S)-6-(2-methyl-1,4-diazocan-1-ylsulfonyl)isoquinoline dihydrochloride]", "values": [{"measurement": "inhibition in vivo at 10 %", "setting": "[1]", "value": "≥ 15", "unit": "%"}]}, {"smiles": "C[C@@H]1CNCCCN1S(=O)(=O)c1cc2ccncc2cc1F", "note": "[Example 25, (R)-6-(2-methyl-1,4-diazepan-1-ylsulfonyl)-7-fluoroisoquinoline dihydrochloride]", "values": [{"measurement": "inhibition in vivo at 10 %", "setting": "[1]", "value": "≥ 15", "unit": "%"}]}, {"smiles": "O=S(=O)(c1ccc2cnccc2c1)N1CCCNC[C@H]1CF", "note": "[Example 26, (S)-6-(2-fluoromethyl-1,4-diazepan-1-ylsulfonyl)isoquinoline dihydrochloride]", "values": [{"measurement": "inhibition in vivo at 10 %", "setting": "[1]", "value": "≥ 15", "unit": "%"}]}, {"smiles": "C[C@H]1CNCCCCCN1S(=O)(=O)c1ccc2cnccc2c1", "note": "[Example 28, (S)-6-(2-methyl-1,4-diazonan-1-ylsulfonyl)isoquinoline dihydrochloride]", "values": [{"measurement": "inhibition in vivo at 10 %", "setting": "[1]", "value": "≥ 15", "unit": "%"}]}, {"smiles": "C[C@@H]1CNCCCN1S(=O)(=O)c1ccc2cnccc2c1Br", "note": "[Example 29, (R)-5-bromo-6-(2-methyl-1,4-diazepan-1-ylsulfonyl)isoquinoline dihydrochloride]", "values": [{"measurement": "inhibition in vivo at 10 %", "setting": "[1]", "value": "≥ 15", "unit": "%"}]}, {"smiles": "C[C@@H]1CCN(S(=O)(=O)c2ccc3cnccc3c2)CCNC1", "note": "[Example 30, (R)-6-(6-methyl-1,4-diazocan-1-ylsulfonyl)isoquinoline dihydrochloride]", "values": [{"measurement": "inhibition in vivo at 10 %", "setting": "[1]", "value": "≥ 15", "unit": "%"}]}, {"smiles": "C[C@@H]1CCNCCN(S(=O)(=O)c2ccc3cnccc3c2)C1", "note": "[Example 31, (R)-6-(7-methyl-1,4-diazocan-1-ylsulfonyl)isoquinoline dihydrochloride]", "values": [{"measurement": "inhibition in vivo at 10 %", "setting": "[1]", "value": "≥ 15", "unit": "%"}]}, {"smiles": "C[C@H]1CCNCCN1S(=O)(=O)c1ccc2cnccc2c1", "note": "[Example 32, (S)-6-(7-methyl-1,4-diazepan-1-ylsulfonyl)isoquinoline dihydrochloride]", "values": [{"measurement": "pulse rate", "setting": "[2]; 10 mg/kg", "value": "increased"}, {"measurement": "systolic blood pressure lowered compared with the value before administration", "setting": "[2]; 10 mg/kg", "value": 16, "unit": "%"}, {"measurement": "inhibition in vivo at 10 %", "setting": "[1]", "value": "≥ 15", "unit": "%"}]}, {"smiles": "C[C@@H]1CNCCCCCN1S(=O)(=O)c1ccc2cnccc2c1", "note": "[Example 33, (R)-6-(2-methyl-1,4-diazonan-1-ylsulfonyl)isoquinoline dihydrochloride]", "values": [{"measurement": "inhibition in vivo at 10 %", "setting": "[1]", "value": "≥ 15", "unit": "%"}]}, {"smiles": "C[C@@H]1CCNCCN1S(=O)(=O)c1ccc2cnccc2c1", "note": "[Example 34, (R)-6-(7-methyl-1,4-diazepan-1-ylsulfonyl)isoquinoline dihydrochloride]", "values": [{"measurement": "pulse rate", "setting": "[2]; 30 mg/kg", "value": "increased"}, {"measurement": "inhibition in vivo at 10 %", "setting": "[1]", "value": "≥ 15", "unit": "%"}]}, {"smiles": "C[C@@H]1CCNC[C@@H](C)N1S(=O)(=O)c1ccc2cnccc2c1", "note": "[Example 35, (2R,7R)-6-(2,7-dimethyl-1,4-diazepan-1-ylsulfonyl)isoquinoline dihydrochloride]", "values": [{"measurement": "pulse rate", "setting": "[2]; 10 mg/kg", "value": "increased"}, {"measurement": "inhibition in vivo at 10 %", "setting": "[1]", "value": "≥ 15", "unit": "%"}]}, {"smiles": "C[C@@H]1CCNC[C@H](C)N1S(=O)(=O)c1ccc2cnccc2c1", "note": "[Example 36, (2S,7R)-6-(2,7-dimethyl-1,4-diazepan-1-ylsulfonyl)isoquinoline dihydrochloride]", "values": [{"measurement": "inhibition in vivo at 10 %", "setting": "[1]", "value": "≥ 15", "unit": "%"}]}, {"smiles": "C[C@@H]1CCCNCCN1S(=O)(=O)c1ccc2cnccc2c1", "note": "[Example 37, (R)-6-(8-methyl-1,4-diazocan-1-ylsulfonyl)isoquinoline dihydrochloride]", "values": [{"measurement": "inhibition in vivo at 10 %", "setting": "[1]", "value": "≥ 15", "unit": "%"}]}, {"smiles": "C[C@@H]1CCNCCCN1S(=O)(=O)c1ccc2cnccc2c1", "note": "[Example 38, (R)-6-(2-methyl-1,5-diazocan-1-ylsulfonyl)isoquinoline dihydrochloride]", "values": [{"measurement": "inhibition in vivo at 10 %", "setting": "[1]", "value": "≥ 15", "unit": "%"}]}, {"smiles": "C[C@@H]1CNCCCCN1S(=O)(=O)c1ccc2cnccc2c1[N+](=O)[O-]", "note": "[Example 39, (R)-6-(2-methyl-1,4-diazocan-1-ylsulfonyl)-5-nitroisoquinoline dihydrochloride]", "values": [{"measurement": "inhibition in vivo at 10 %", "setting": "[1]", "value": "≥ 15", "unit": "%"}]}, {"smiles": "C[C@@H]1CNC[C@@H](C)N1S(=O)(=O)c1ccc2cnccc2c1", "note": "[Example 40, (2R,6R)-6-(2,6-dimethylpiperazin-1-ylsulfonyl)isoquinoline dihydrochloride]", "values": [{"measurement": "inhibition in vivo at 10 %", "setting": "[1]", "value": "≥ 15", "unit": "%"}]}, {"smiles": "C[C@H]1CCNC[C@H](C)N1S(=O)(=O)c1ccc2cnccc2c1", "note": "[Example 41, (2S,7S)-6-(2,7-dimethyl-1,4-diazepan-1-ylsulfonyl)isoquinoline dihydrochloride]", "values": [{"measurement": "inhibition in vivo at 10 %", "setting": "[1]", "value": "≥ 15", "unit": "%"}]}, {"smiles": "C[C@H]1CCNCCCN1S(=O)(=O)c1ccc2cnccc2c1", "note": "[Example 42, (S)-6-(2-methyl-1,5-diazocan-1-ylsulfonyl)isoquinoline dihydrochloride]", "values": [{"measurement": "inhibition in vivo at 10 %", "setting": "[1]", "value": "≥ 15", "unit": "%"}]}, {"smiles": "C[C@@H]1CNCCOCCN1S(=O)(=O)c1ccc2cnccc2c1", "note": "[Example 43, (R)-6-(5-methyl-1,4,7-oxadiazonan-4-ylsulfonyl)isoquinoline dihydrochloride]", "values": [{"measurement": "inhibition in vivo at 10 %", "setting": "[1]", "value": "≥ 15", "unit": "%"}]}, {"smiles": "C[C@@H]1CNCCNCCN1S(=O)(=O)c1ccc2cnccc2c1", "note": "[Example 44, (R)-6-(2-methyl-1,4,7-triazonan-1-ylsulfonyl)isoquinoline trihydrochloride]", "values": [{"measurement": "inhibition in vivo at 10 %", "setting": "[1]", "value": "≥ 15", "unit": "%"}]}, {"smiles": "NCC(=O)N1CCCN(S(=O)(=O)c2ccc3cnccc3c2)CC1", "note": "[Example 45, 6-(4-glycyl-1,4-diazepan-1-ylsulfonyl)isoquinoline dihydrochloride]", "values": [{"measurement": "inhibition in vivo at 10 %", "setting": "[1]", "value": "5 to 15", "unit": "%"}]}, {"smiles": "C[C@@H]1CN(C(=O)CN)CCCCN1S(=O)(=O)c1ccc2cnccc2c1", "note": "[Example 47, (R)-6-(4-glycyl-2-methyl-1,4-diazocan-1-ylsulfonyl)isoquinoline dihydrochloride]", "values": [{"measurement": "inhibition in vivo at 10 %", "setting": "[1]", "value": "5 to 15", "unit": "%"}]}, {"smiles": "CNCC(=O)N1CCCCN(S(=O)(=O)c2ccc3cnccc3c2)[C@H](C)C1", "note": "[Example 48, (R)-6-(4-sarcosyl-2-methyl-1,4-diazocan-1-ylsulfonyl)isoquinoline dihydrochloride]", "values": [{"measurement": "inhibition in vivo at 10 %", "setting": "[1]", "value": "5 to 15", "unit": "%"}]}, {"smiles": "Cc1c(S(=O)(=O)N2CCCNC[C@@H]2C)ccc2cnccc12", "note": "[Example 49, (S)-5-methyl-6-(2-methyl-1,4-diazepan-1-ylsulfonyl)isoquinoline]", "values": [{"measurement": "degree of neurite outgrowth", "setting": "NG108-15 cells", "value": "remarkable neurite outgrowth"}, {"measurement": "inhibition in vivo at 10 %", "setting": "[1]", "value": "≥ 15", "unit": "%"}]}, {"smiles": "C[C@@H]1CCNCCN1S(=O)(=O)c1ccc2c(SCCN)nccc2c1", "note": "[Example 51, (R)-1-(2-aminoethylthio)-6-(7-methyl-1,4-diazepan-1-ylsulfonyl)isoquinoline trihydrochloride]", "values": [{"measurement": "inhibition in vivo at 2 %", "setting": "[3]", "value": "≥ 15", "unit": "%"}]}, {"smiles": "C[C@@H]1CNCCCCN1S(=O)(=O)c1ccc2c(SCCN)nccc2c1", "note": "[Example 52, (R)-1-(2-aminoethylthio)-6-(2-methyl-1,4-diazocan-1-ylsulfonyl)isoquinoline trihydrochloride]", "values": [{"measurement": "inhibition in vivo at 2 %", "setting": "[3]", "value": "≥ 15", "unit": "%"}]}]}
